# Patent EP0963755A2, “Use of benzopyranes for preventing allograft rejection” (Pfizer Products Inc., priority 1998, dated 1999)
# Test system: acute allograft rejection
# Test: murine cardiac ear pinna model of acute allograft rejection (non-vascularized cardiac tissue transplantation)
# Format: in vivo
# Details: monotherapy; for Graft Survival, Mean ± Std Dev (mean survival days): day 0 to 17, BALB/C neonatal hearts into C3H/HeN ear pinna, assessed day 6 to 18
# Text: Methods: A rapid, facile 2-week murine bioassay of non-vascularized cardiac tissue transplantation,t he murine cardiac ear pinna model of acute allograft rejection, was used to evaluate the dose-response relationship of immunosuppressive drugs on allograft rejection. In this model, donor BALB/C (H2^d) neonatal hearts are transplanted into recipient C3H/HeN (H2^k) ear pinna pouches without vacular anastomoses. Survivinghearts are revascularized and usually resume beating on day 3 to 6. Untreated allografts failed prior to day 12 (MST = 10.5 + 0.9d, n=13). Isografts survived indefinitely. All compounds are given on day 0 to 17 COMPOUND P [(+)-2-[3,4-dihydro(3S,4R)-4-hydroxy-3-(4-phenyl-phenylmethyl)-7-(2H,1-benzopyran)]cyclopentane carboxylic acid] was given orally in 0.5% Methylcellulose. Grafts were assessed by visual examination for contraction on alternate days (from 6 to 18) and graft survival was defined as the post-transplant day on which contractions cease. Efficacy data from day 6 to 18 is presented as mean survival days (+SD) and was analyzed by Log Rank Analysis. Graft survival values were determined at day 18. Any graft surviving at day 18 was censored for statistical purposes.
smiles,measurement,setting,value
"O=C(O)C1CCCC1c1ccc2c(c1)OC[C@H](Cc1ccc(-c3ccccc3)cc1)[C@H]2O (single isomer, unassigned; (+)) [COMPOUND P]",efficacy as a single agent in acute rejection (graft survival on day 18),"highest dose, 300 mg/kg d",significant (p<0.01)
same,efficacy as a single agent in acute rejection (graft survival on day 18),"lower doses tested (200, 100, and 30 mg/kg)",not at the lower doses tested
same,"Graft Survival, Mean ± Std Dev (mean survival days)",30 mg/kg/d orally in 0.5% Methylcellulose,11.0 ± 1.1 days
same,"Graft Survival, Mean ± Std Dev (mean survival days)",100 mg/kg/d orally in 0.5% Methylcellulose,10.3 ± 0.7 days
same,"Graft Survival, Mean ± Std Dev (mean survival days)",200 mg/kg/d orally in 0.5% Methylcellulose,10.3 ± 0.7 days
same,"Graft Survival, Mean ± Std Dev (mean survival days)",300 mg/kg/d orally in 0.5% Methylcellulose,11.8 ± 1.1 days
